Several values for one entry are separate records, joined by “and”; a condition that tells them apart may be missing. Equal entries are not always repeated. Where two headings read alike, the source gives them in different places.
What was measured:
[1] = ABTS free radical scavenging assay; format: biochemical; settings: for ABTS IC50: ABTS radical scavenging, absorbance at 734 nm
Method: The ABTS free radical scavenging antioxidant activity of the compounds was performed by using the previously reported methods. In this activity, the compounds scavenge ABTS^+ cations, and thus, a reduction in absorption is observed at 734 nm using a UV-visible spectrophotometer. Solutions of 7 mM ABTS and 2.45 mM of […] were prepared and were mixed. The mixture was stored at dark for about 16 h to get ABTS cations which appeared dark in color. The solution of ABTS cation was diluted with phosphate buffer (0.01 M having pH of 7.4); the absorbance value (0.70) was adjusted at 734 nm. To confirm the ABTS radicals' scavenging capacity, 300 μL solution of compound was mixed with 3.0 mL of ABTS. After one minute, the reduction in absorption was noted and was monitored for six minutes. The ascorbic acid was used as positive control in this activity. The experiments were repeated three times. The percent inhibitions and its IC50 values were measured as per the standard method.

[2] = DPPH free radical scavenging assay; format: biochemical
Method: The 1,1-diphenyl-2-picrylhydrazyl free radicals of the compounds were performed by using the reported method. Different concentrations of the compounds were mixed with DPPH methanolic solution of 0.004%. After half an hour, the absorption was determined with a double-beam UV-visible spectrophotometer at 517 nm. The same standard (ascorbic acid) was used as in the ABTS assay. The experiments were repeated three times. The percent inhibitions and IC50 values of the compounds were calculated with the standard formula.

AChE = AChE (Homo sapiens, UniProt P22303); assay: biochemical
Method: (§1) The two enzymes break down their respective thiocholine iodide to produce the ion 5-thio-2-nitrobenzoate. […] The enzyme dilutions were prepared in phosphate buffer having pH of 8. Parallelly, the acetyl and butyrylthiocholine iodide solutions (0.05 mM) and DTNB were also prepared in H2O (distilled water of our laboratory) and were stored at 8°C for 15 min. […] The experiments were performed three times. The percent inhibitions and their subsequent IC50 values were calculated as per the standard formula [43].

BChE = BChE (Homo sapiens, UniProt P06276); assay: Anticholinesterase assay (BChE); format: biochemical
Method: as §1

COX-1 = COX-1 (Homo sapiens, UniProt P23219); assay: Anticyclooxygenase assay (COX-1); format: biochemical
Method: (§2) The COX-1 enzyme 10 μL and COX-2 300 units/mL were activated on ice for 5 min. The activation solution was accompanied by a cofactor of 50 μL containing glutathione, hematin, 1.0 mM, and TMPD in Tris-HCl buffer with pH of 8. […] The reaction was initiated when arachidonic acid 20 μL was added. The reaction was incubated for 5 min, and absorbance was measured at 570 nm as per the reported procedure. The experiments were repeated three times.

COX-2 = biological target: T1, COX-2 (Homo sapiens, UniProt P35354); assay: Anticyclooxygenase assay (COX-2); format: biochemical
T1 sequence (P35354 18-604): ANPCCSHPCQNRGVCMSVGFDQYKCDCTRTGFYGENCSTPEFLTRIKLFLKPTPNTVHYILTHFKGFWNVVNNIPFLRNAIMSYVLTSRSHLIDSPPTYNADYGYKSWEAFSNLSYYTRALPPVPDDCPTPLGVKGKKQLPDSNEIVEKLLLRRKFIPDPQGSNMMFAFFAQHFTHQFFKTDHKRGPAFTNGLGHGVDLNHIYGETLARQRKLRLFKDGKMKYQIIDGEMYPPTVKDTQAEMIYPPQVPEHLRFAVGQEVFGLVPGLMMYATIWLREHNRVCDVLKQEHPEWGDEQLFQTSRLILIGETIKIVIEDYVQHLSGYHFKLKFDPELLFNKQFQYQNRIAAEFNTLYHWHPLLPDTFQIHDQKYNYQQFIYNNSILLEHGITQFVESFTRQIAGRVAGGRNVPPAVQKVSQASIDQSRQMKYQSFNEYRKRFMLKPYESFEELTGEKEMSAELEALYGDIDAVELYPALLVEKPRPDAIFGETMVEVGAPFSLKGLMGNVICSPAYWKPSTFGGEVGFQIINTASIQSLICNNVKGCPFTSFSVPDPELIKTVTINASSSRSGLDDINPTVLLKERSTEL
Method: as §2

5-LOX = assay: 5-Lipoxygenase assay (5-LOX); format: biochemical
Method: The lipoxygenase enzyme 10,000 unit/μL was used in the assay. The substrate used in this assay was linoleic acid. […] The combined mixture was incubated at 25°C for 5 min. Afterwards, linoleic acid was properly mixed with it and was kept for 5 min. […] The experiments were performed three times. The percent 5-LOX inhibitions and the IC50 values were calculated as per the standard formula [44].

[3] = biological target: T2, protein tyrosine phosphatase 1B (Homo sapiens, UniProt P18031); assay: Protein tyrosine phosphatase 1B assay; format: biochemical
T2 sequence (P18031 1-435): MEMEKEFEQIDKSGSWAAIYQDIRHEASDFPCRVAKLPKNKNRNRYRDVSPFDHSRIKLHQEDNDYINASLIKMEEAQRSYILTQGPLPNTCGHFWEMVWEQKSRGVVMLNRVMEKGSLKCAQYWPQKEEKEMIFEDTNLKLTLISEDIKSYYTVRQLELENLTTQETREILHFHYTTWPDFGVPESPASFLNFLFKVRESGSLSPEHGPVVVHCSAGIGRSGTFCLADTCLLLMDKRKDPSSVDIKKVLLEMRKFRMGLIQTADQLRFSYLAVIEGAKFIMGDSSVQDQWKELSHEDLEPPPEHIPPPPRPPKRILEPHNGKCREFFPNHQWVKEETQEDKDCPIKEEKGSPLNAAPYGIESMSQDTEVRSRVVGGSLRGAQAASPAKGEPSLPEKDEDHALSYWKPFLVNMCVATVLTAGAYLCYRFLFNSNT
Method: In the PTP1B assay, 4-nitrophenylphosphate was used as substrate. The solution of dimethyl glutarate […] in buffer of pH 7 was prepared to be used in the assay. […] The solution was incubated at 37°C for 15 min. […] The experiments were performed three times. The percent inhibitions and their corresponding IC50 values were calculated as per the standard formula [46].

[4] = DPPH radical scavenging, absorbance at 517 nm
[5] = Tables 2 and 3 print no unit, text μg/mL, abstract μM
[6] = Table 2 prints no unit, text b63 μg/mL, abstract μM

Chain of AChE (P22303 32-614): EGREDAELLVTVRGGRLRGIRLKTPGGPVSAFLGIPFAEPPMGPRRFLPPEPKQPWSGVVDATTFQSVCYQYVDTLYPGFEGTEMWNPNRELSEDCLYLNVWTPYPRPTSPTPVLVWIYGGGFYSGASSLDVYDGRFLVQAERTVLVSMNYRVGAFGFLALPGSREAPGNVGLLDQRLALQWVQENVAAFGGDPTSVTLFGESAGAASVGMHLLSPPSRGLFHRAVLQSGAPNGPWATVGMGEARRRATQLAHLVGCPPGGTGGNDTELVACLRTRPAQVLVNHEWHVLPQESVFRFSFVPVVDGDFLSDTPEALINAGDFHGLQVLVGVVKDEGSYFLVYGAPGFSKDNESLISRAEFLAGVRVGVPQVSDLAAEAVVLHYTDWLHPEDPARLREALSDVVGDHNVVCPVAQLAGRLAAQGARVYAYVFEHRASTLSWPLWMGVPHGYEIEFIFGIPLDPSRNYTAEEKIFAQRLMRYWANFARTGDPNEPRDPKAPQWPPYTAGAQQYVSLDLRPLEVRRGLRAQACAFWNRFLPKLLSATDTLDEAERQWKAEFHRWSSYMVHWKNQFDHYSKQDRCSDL
Chain of BChE (P06276 29-602, species assumed): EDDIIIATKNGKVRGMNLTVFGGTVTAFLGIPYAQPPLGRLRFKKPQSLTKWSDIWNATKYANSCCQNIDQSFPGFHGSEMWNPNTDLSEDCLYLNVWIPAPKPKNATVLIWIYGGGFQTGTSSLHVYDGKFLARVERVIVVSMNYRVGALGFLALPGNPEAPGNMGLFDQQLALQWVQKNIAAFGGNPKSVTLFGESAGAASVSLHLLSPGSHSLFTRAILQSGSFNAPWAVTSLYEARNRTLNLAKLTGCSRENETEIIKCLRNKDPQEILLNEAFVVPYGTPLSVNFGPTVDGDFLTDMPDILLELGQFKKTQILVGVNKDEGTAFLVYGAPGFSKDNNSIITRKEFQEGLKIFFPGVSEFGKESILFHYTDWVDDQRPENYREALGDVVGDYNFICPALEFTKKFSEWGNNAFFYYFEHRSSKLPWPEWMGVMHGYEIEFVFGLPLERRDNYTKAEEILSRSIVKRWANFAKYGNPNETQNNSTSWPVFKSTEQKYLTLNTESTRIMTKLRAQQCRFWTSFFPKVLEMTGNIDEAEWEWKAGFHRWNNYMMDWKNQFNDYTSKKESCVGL
Chain of COX-1 (P23219 24-599): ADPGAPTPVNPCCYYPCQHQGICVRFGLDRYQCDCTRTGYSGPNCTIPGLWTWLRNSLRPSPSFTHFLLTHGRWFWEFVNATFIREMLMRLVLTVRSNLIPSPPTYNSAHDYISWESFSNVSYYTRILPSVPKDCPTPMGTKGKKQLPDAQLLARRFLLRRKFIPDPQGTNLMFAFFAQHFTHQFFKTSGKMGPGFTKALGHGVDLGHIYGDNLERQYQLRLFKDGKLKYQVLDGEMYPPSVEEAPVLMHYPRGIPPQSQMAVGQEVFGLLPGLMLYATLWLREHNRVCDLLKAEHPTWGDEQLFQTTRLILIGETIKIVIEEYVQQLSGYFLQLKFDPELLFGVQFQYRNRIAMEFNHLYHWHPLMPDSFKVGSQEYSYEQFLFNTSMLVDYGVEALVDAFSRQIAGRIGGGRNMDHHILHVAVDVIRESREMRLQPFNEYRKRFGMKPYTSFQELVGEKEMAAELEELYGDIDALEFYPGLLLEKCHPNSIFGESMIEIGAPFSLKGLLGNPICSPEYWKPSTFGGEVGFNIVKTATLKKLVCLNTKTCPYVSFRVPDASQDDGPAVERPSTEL

SMILES: O=C1O[C@H]([C@@H](O)CO)C(O)=C1O [Ascorbic acid, reference compound]
- ABTS IC50 [1]: 0.211 µg/mL
- DPPH IC50 [2, 4]: 0.840 µg/mL
- DPPH IC50 [2, 5]: 0.840 ± 0.14 and 0.840 ± 0.04

SMILES: COc1cc(CC(C)=O)ccc1O [Compound 6, 1-(4-Hydroxy-3-methoxyphenyl)propan-2-one]
- ABTS IC50 [1]: 9.55 µg/mL
- DPPH IC50 [2, 4]: 9.99 µg/mL

SMILES: COc1c(O)ccc(O)c1C [Compound 4, 2-Methoxy-3-methylbenzene-1,4-diol]
- ABTS IC50 [1]: 4.63 µg/mL
- DPPH IC50 [2, 4]: 3.19 µg/mL

SMILES: OCc1ccco1 [Compound 1, Furan-2-ylmethanol]
- ABTS IC50 [1]: 7.43 µg/mL
- DPPH IC50 [2, 4]: 8.19 µg/mL

SMILES: COc1cc(/C=C2\CC(=O)N(c3ccc(O)cc3)C2=O)ccc1O [Compound 5A, (E)-3-(4-Hydroxy-3-methoxybenzylidene)-1-(4-hydroxyphenyl)pyrrolidine-2,5-dione]
- IC50 [2]: 1.05 µM
- DPPH IC50 [2, 5]: 1.05 ± 0.51
- IC50 (AChE): 10.6 µM
- IC50 (AChE; [6]): 32.6 µM
- SI (selectivity index AChE/BChE) (AChE; ratio of BChE IC50 to AChE IC50): 1.42
- IC50 (BChE): 15.1 µM
- IC50 (BChE; [6]): 46.4 µM
- IC50 (COX-1; COX-1 IC50, Table 2 prints no unit, text b63 μg/mL, abstract μM): 42.8 µM
- IC50 (COX-1; COX-1 IC50, as printed in abstract): 13.9 µM
- IC50 (COX-2; COX-2 IC50, Table 2 prints no unit, text b63 μg/mL, abstract μM): 3.32 µM
- IC50 (COX-2; COX-2 IC50, as printed in abstract): 1.08 µM
- SI (COX-2 selectivity index) (COX-2; ratio of COX-1 and COX-2 IC50): 12.9
- 5-LOX IC50 (5-LOX; Table 2 prints no unit, text b63 μg/mL, abstract and b89 μM): 0.71 ± 0.10
- IC50 (5-LOX; as printed in abstract and b89): 0.71 µM

SMILES: COc1cc(/C=C2\SC(=O)NC2=O)ccc1O [Compound 5B, (Z)-5-(4-Hydroxy-3-methoxybenzylidene)thiazolidine-2,4-dione]
- IC50 [2]: 1.94 µM
- DPPH IC50 [2, 5]: 1.94 ± 1.20
- IC50 ([3]; read-out: protein tyrosine phosphatase 1B IC50): 53.3 µM
- IC50 ([3]; unit inferred, text b66 μg/mL, abstract μM, read-out: PTP1B IC50 (converted)): 212 µM

SMILES: C=Cc1ccc(O)cc1 [Compound 3, 4-Vinylphenol]
- ABTS IC50 [1]: 12.60 µg/mL
- DPPH IC50 [2, 4]: 10.27 µg/mL

SMILES: CC1=C(O)C(=O)C(C)(O)O1 (centres unmarked) [Compound 2, 2,4-Dihydroxy-2,5-dimethylfuran-3(2H)-one]
- ABTS IC50 [1]: 3.005 µg/mL
- ABTS percent inhibition ([1]; at 31.25 μg/mL): 66.44
- ABTS percent inhibition ([1]; at 62.5 μg/mL): 71.47
- ABTS percent inhibition ([1]; at 125 μg/mL): 77.39
- ABTS percent inhibition ([1]; at 250 μg/mL): 83.34
- ABTS percent inhibition ([1]; at 500 μg/mL): 88.36
- DPPH IC50 [2, 4]: 1.61 µg/mL

SMILES: COc1cc(C=O)ccc1O [Compound 5, 4-Hydroxy-3-methoxybenzaldehyde]
- ABTS IC50 [1]: 8.28 µg/mL
- DPPH IC50 [2, 4]: 2.12 µg/mL
